Where two headings read alike, the source gives them in different places.
Tests used:
[1] = tested on: UMR 106 cell line; conditions: UMR 106 cells in vitro; Wang et al. 2001, Meng et al. 2004; cited from earlier work
[2] = tested on: ovariectomized rats; experiment: ovariectomized rat osteoporosis animal model; assay type: in vivo; conditions: femur, three months, dose not given
Experimental: Materials have been tested in ovariectomized rats, a popular and generally accepted osteoporosis animal model.
After orally dosing continuously for three months at 0.12, 0.25, 0.5 and 0.8 g/kg/day, twice a day, the bone mass index, wet weight and dry weight of femur, bone mineral densities of femur and lumbar were measured and calculated. Body weights of rats were measured weekly.
The effects of the purified composition on the body weight of the rats in the groups described above were determined.
We measured the body weight of each experimental animal group weekly.

[3] = tested on: osteoblast-like cells; conditions: Kim et al. (2003), Ha (2003), cited from earlier work
[4] = tested on: human osteoblast-like cell lines, MG-63 and hFOB; conditions: Kuo et al. (2005); cited from earlier work

COc1c2ccoc2cc2oc(=O)ccc12 [Bergapten, bergapten]
osteoblastic proliferation activity [1]: less effective than osthole

NCCCC(O)(P(=O)(O)O)P(=O)(O)O [Fosamax ®]
Wet Weight (mg/cm) ( x ± s) [2]: 205.8757 ± 18.32 mg/cm

O=C(O)C1=CO[C@@H](O[C@@H]2O[C@H](CO)[C@@H](O)[C@H](O)[C@H]2O)[C@@H]2C(CO)=CC[C@H]12 [GPA, geniposidic acid]
proliferation of osteoblast-like cells [3]: increases the proliferation of osteoblast-like cells | proliferation of osteoblast-like cells ([3]; listed as geniposidic acid): increased the proliferation of osteoblast-like cells

COc1ccc2ccc(=O)oc2c1CC=C(C)C [Osthole, osthole]
osteoblastic proliferation activity [1]: significantly promoted the cells' activity | differentiation of osteoblast-like cells [4]: significantly induced the differentiation

OCC1=C[C@@H](O)[C@@H]2C=CO[C@@H](O[C@@H]3O[C@H](CO)[C@@H](O)[C@H](O)[C@H]3O)[C@H]12 [aucubin]
proliferation of osteoblast-like cells [3]: increased the proliferation of osteoblast-like cells

COC(=O)C1=CO[C@@H](O[C@@H]2O[C@H](CO)[C@@H](O)[C@H](O)[C@H]2O)[C@@H]2C(CO)=CC[C@H]12 [geniposide]
proliferation of osteoblast-like cells [3]: increased the proliferation of osteoblast-like cells

CC(C)=CCOc1c2occc2cc2ccc(=O)oc12 [imperatorin]
osteoblastic proliferation activity [1]: less effective than osthole
